Experimental data from ChEMBL document CHEMBL5727231, “Farnesoid X receptor agonists and uses thereof” (2019).

target: T1, Bile acid receptor (Homo sapiens, UniProt Q96RI1); test: In Vitro FXR Assay (TK): SeedingCV-1 cells were seeded at a density of 2,000,000 cells in a T175 flask with DMEM+10% charcoal double-stripped FBS and incubated at 37° C. in 5% CO2 for 18 h (O/N).TransfectionAfter 18 h of incubation, the medium in the T175 flask was changed with fresh DMEM+10% charcoal super-stripped serum. In a polypropylene tube, 2500 μL OptiMEM (Life Technologies, Cat #31985-062) was combined with expression plasmids for hFXR, hRXR, TK-ECRE-luc and pCMX-YFP. The tube was then briefly vortexed and incubated at room temperature for 5 minutes. Transfection reagent (X-tremeGENE HP from Roche, Cat #06 366 236 001) was added to the OptiMEM/plasmid mixture vortexed and incubated at room temperature for 20 minutes. Following incubation, the transfection reagent/DNA mixture complex was added to cells in the T175 flask and the cells were incubated at 37° C. in 5% CO2 for 18 h (O/N).Test CompoundsCompounds were serially diluted in DMSO and added to transfected CV-1 cells. The cells were then incubated for 18 hrs. The next day cells were lysed and examined for luminescence.
T1 sequence (Q96RI1 whole entry): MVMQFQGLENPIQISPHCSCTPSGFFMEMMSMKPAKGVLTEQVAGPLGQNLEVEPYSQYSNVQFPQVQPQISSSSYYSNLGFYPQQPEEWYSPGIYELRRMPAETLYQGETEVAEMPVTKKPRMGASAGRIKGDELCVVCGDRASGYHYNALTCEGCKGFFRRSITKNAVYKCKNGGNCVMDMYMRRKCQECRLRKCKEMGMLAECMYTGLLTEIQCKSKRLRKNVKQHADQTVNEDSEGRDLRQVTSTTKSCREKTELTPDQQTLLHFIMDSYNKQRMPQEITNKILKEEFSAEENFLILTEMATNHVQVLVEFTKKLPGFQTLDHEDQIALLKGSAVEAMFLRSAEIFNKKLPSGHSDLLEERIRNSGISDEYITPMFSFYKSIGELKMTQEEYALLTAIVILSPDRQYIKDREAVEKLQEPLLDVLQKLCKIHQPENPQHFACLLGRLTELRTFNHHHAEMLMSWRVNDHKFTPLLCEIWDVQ

EC50	SMILES
< 1 µM	COC(=O)c1ccc2c(N(C[C@H]3CC[C@H](c4ccc(OC)c(C)c4)CC3)C(=O)C3CCCCC3)nccc2c1
< 1 µM	COC(=O)c1ccc2c(N(C[C@H]3CC[C@H](c4cccc(OC)c4)CC3)C(=O)CC(C)(C)C)nccc2c1
< 1 µM	COC(=O)c1ccc2c(N(C[C@H]3CC[C@H](c4ccc(C)cc4)CC3)C(=O)CC(C)(C)C)nccc2c1
